Measured values as given in the supplement of paper PMC11451515.

Test system: NOMO1
Assay: cell viability relative to DMSO control; higher = less cytotoxic
Settings: 48 h
Outline: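 Viability is a per-plate percentage relative to DMSO wells, with cell-free wells as background. CellTiter-Glo One luminescence was read after 48 h at 37°C on 1536-well plates (5 μl) of NOMO1 or SEM (500 cells/well) or P12-Ichikawa (1000 cells/well) leukemia cells. The cells had been adapted for at least four passages in each medium and pin-dosed with library compounds in DMSO from 47 μM to 0.79 nM in 11 threefold steps.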

[1] = HPLM + 10% dialyzed FBS, 0.000781 µM
[2] = HPLM + 10% dialyzed FBS, 0.00234 µM
[3] = HPLM + 10% dialyzed FBS, 0.00702 µM
[4] = HPLM + 10% dialyzed FBS, 0.0211 µM
[5] = HPLM + 10% dialyzed FBS, 0.0632 µM
[6] = HPLM + 10% dialyzed FBS, 0.19 µM
[7] = HPLM + 10% dialyzed FBS, 0.569 µM
[8] = HPLM + 10% dialyzed FBS, 1.71 µM
[9] = HPLM + 10% dialyzed FBS, 5.12 µM
[10] = HPLM + 10% dialyzed FBS, 15.4 µM
[11] = HPLM + 10% dialyzed FBS, 46.1 µM
[12] = RPMI 5 mM glucose + 10% FBS, 0.000781 µM
[13] = RPMI 5 mM glucose + 10% FBS, 0.00234 µM
[14] = RPMI 5 mM glucose + 10% FBS, 0.00702 µM
[15] = RPMI 5 mM glucose + 10% FBS, 0.0211 µM
[16] = RPMI 5 mM glucose + 10% FBS, 0.0632 µM
[17] = RPMI 5 mM glucose + 10% FBS, 0.19 µM
[18] = RPMI 5 mM glucose + 10% FBS, 0.569 µM
[19] = RPMI 5 mM glucose + 10% FBS, 1.71 µM
[20] = RPMI 5 mM glucose + 10% FBS, 5.12 µM
[21] = RPMI 5 mM glucose + 10% FBS, 15.4 µM
[22] = RPMI 5 mM glucose + 10% FBS, 46.1 µM
[23] = RPMI 5 mM glucose + 10% dialyzed FBS, 0.000781 µM
[24] = RPMI 5 mM glucose + 10% dialyzed FBS, 0.00234 µM
[25] = RPMI 5 mM glucose + 10% dialyzed FBS, 0.00702 µM
[26] = RPMI 5 mM glucose + 10% dialyzed FBS, 0.0211 µM
[27] = RPMI 5 mM glucose + 10% dialyzed FBS, 0.0632 µM
[28] = RPMI 5 mM glucose + 10% dialyzed FBS, 0.19 µM
[29] = RPMI 5 mM glucose + 10% dialyzed FBS, 0.569 µM
[30] = RPMI 5 mM glucose + 10% dialyzed FBS, 1.71 µM
[31] = RPMI 5 mM glucose + 10% dialyzed FBS, 5.12 µM
[32] = RPMI 5 mM glucose + 10% dialyzed FBS, 15.4 µM
[33] = RPMI 5 mM glucose + 10% dialyzed FBS, 46.1 µM

| SMILES | cell viability [1] [%] | cell viability [2] [%] | cell viability [3] [%] | cell viability [4] [%] | cell viability [5] [%] | cell viability [6] [%] | cell viability [7] [%] | cell viability [8] [%] | cell viability [9] [%] | cell viability [10] [%] | cell viability [11] [%] | cell viability [12] [%] | cell viability [13] [%] | cell viability [14] [%] | cell viability [15] [%] | cell viability [16] [%] | cell viability [17] [%] | cell viability [18] [%] | cell viability [19] [%] | cell viability [20] [%] | cell viability [21] [%] | cell viability [22] [%] | cell viability [23] [%] | cell viability [24] [%] | cell viability [25] [%] | cell viability [26] [%] | cell viability [27] [%] | cell viability [28] [%] | cell viability [29] [%] | cell viability [30] [%] | cell viability [31] [%] | cell viability [32] [%] | cell viability [33] [%] |
| --- | --- | --- | --- | --- | --- | --- | --- | --- | --- | --- | --- | --- | --- | --- | --- | --- | --- | --- | --- | --- | --- | --- | --- | --- | --- | --- | --- | --- | --- | --- | --- | --- | --- |
| CC(=O)N1CCN(c2ccc(OC[C@H]3CO[C@](Cn4ccnc4)(c4ccc(Cl)cc4Cl)O3)cc2)CC1 | 126 | 120 | 123 | 118 | 117 | 102 | 129 | 103 | 98.8 | 96.3 | 80.4 | 113 | 111 | 121 | 114 | 114 | 107 | 119 | 106 | 97.9 | 98.2 | 93.6 | 111 | 100 | 120 | 127 | 127 | 113 | 103 | 113 | 126 | 110 | 89.3 |
| O=C(O)c1ccc(-n2nc(-c3ccccc3O)nc2-c2ccccc2O)cc1 | 90 | 97.1 | 111 | 90.6 | 108 | 113 | 95.4 | 86.4 | 91.2 | 74.7 | 44.4 | 94.9 | 92.5 | 93.5 | 94 | 104 | 96.3 | 93.5 | 103 | 96 | 90.5 | 29.8 | 94.3 | 103 | 96.4 | 89.2 | 87 | 88.4 | 89.5 | 94.3 | 79.5 | 68 | 24.2 |
| CN(C/C=C/C#CC(C)(C)C)Cc1cccc2ccccc12 | 93.8 | 125 | 104 | 94.1 | 108 | 104 | 108 | 96.4 | 98 | 92.4 | 106 | 86.4 | 96.7 | 86.2 | 85.1 | 93.2 | 91.8 | 103 | 87.2 | 90 | 94.5 | 100 | 87.9 | 82.4 | 95.8 | 91.6 | 107 | 90.1 | 93.9 | 91.6 | 90.2 | 98.8 | 109 |
| Cc1cc(Nc2nc(N[C@@H](C)c3ncc(F)cn3)ncc2Cl)n[nH]1 | 89.6 | 95 | 113 | 124 | 113 | 113 | 109 | 63.3 | 19.9 | 19.5 | 28.5 | 114 | 126 | 117 | 124 | 114 | 123 | 125 | 116 | 98.4 | 19.5 | 15.7 | 108 | 119 | 105 | 127 | 127 | 120 | 126 | 135 | 112 | 38.3 | 23.8 |
| CCOC(=O)N1CCN(/[N+]([O-])=N/Oc2ccc([N+](=O)[O-])cc2[N+](=O)[O-])CC1 | 85.1 | 102 | 102 | 106 | 117 | 101 | 109 | 110 | 97.1 | 98.5 | 50.8 | 80 | 100 | 89.3 | 94.7 | 89.2 | 92.9 | 94.1 | 98.5 | 102 | 87 | 38.5 | 82.1 | 87.5 | 80.1 | 86.8 | 99.7 | 96.6 | 86.7 | 89.5 | 89.2 | 89.6 | 41.9 |
| CC(C)(C)c1cc(C=C(C#N)C#N)cc(Br)c1O | 86 | 114 | 124 | 112 | 112 | 122 | 122 | 113 | 113 | 103 | 94.9 | 89.9 | 115 | 116 | 126 | 103 | 106 | 121 | 132 | 107 | 109 | 100 | 84.5 | 101 | 105 | 103 | 105 | 108 | 125 | 115 | 116 | 116 | 103 |
| O=C(CO)N1CCC(c2n[nH]c(-c3ccc(Cl)cc3)c2-c2ccncn2)CC1 | 117 | 121 | 134 | 129 | 117 | 129 | 120 | 117 | 123 | 34.6 | 78.2 | 111 | 115 | 118 | 113 | 121 | 111 | 113 | 115 | 119 | 57.3 | 96.3 | 113 | 123 | 116 | 105 | 123 | 111 | 109 | 119 | 113 | 41.6 | 92.8 |
